Assay results as given in the NIST ThermoML archive (doi:10.1016/j.fluid.2018.09.024).
Numbers after ± are expanded uncertainties.

assay: activity coefficient (dimensionless); of the first substance listed, at infinite dilution; xn = mol fraction of the nth substance listed; conditions: 318.15 K; 101.33 kPa; Liquid; Chromatography; x1 = 0

Row | Compound | activity coefficient
1 | Cc1ccccc1C [1,2-dimethylbenzene] + CCCCCCCCCCCC[N+](C)(C)CCOc1ccccc1.O=S(=O)([N-]S(=O)(=O)C(F)(F)F)C(F)(F)F | 0.783 ± 0.051
2 | Cc1cccc(C)c1 [1,3-dimethylbenzene] + CCCCCCCCCCCC[N+](C)(C)CCOc1ccccc1.O=S(=O)([N-]S(=O)(=O)C(F)(F)F)C(F)(F)F | 0.847 ± 0.054
3 | Cc1ccc(C)cc1 [1,4-dimethylbenzene] + CCCCCCCCCCCC[N+](C)(C)CCOc1ccccc1.O=S(=O)([N-]S(=O)(=O)C(F)(F)F)C(F)(F)F | 0.861 ± 0.055
4 | C1COCCO1 [1,4-dioxane] + CCCCCCCCCCCC[N+](C)(C)CCOc1ccccc1.O=S(=O)([N-]S(=O)(=O)C(F)(F)F)C(F)(F)F | 0.45 ± 0.036
5 | C=CCCCCCCCC [1-decene] + CCCCCCCCCCCC[N+](C)(C)CCOc1ccccc1.O=S(=O)([N-]S(=O)(=O)C(F)(F)F)C(F)(F)F | 4.02 ± 0.27
6 | C=CCCCCC [1-heptene] + CCCCCCCCCCCC[N+](C)(C)CCOc1ccccc1.O=S(=O)([N-]S(=O)(=O)C(F)(F)F)C(F)(F)F | 2.5 ± 0.17
7 | C#CCCCCC [1-heptyne] + CCCCCCCCCCCC[N+](C)(C)CCOc1ccccc1.O=S(=O)([N-]S(=O)(=O)C(F)(F)F)C(F)(F)F | 1.45 ± 0.1
8 | C#CCCCC [1-hexyne] + CCCCCCCCCCCC[N+](C)(C)CCOc1ccccc1.O=S(=O)([N-]S(=O)(=O)C(F)(F)F)C(F)(F)F | 1.26 ± 0.08
9 | CCC[N+](=O)[O-] [1-nitropropane] + CCCCCCCCCCCC[N+](C)(C)CCOc1ccccc1.O=S(=O)([N-]S(=O)(=O)C(F)(F)F)C(F)(F)F | 0.722 ± 0.048
10 | C#CCCCCCC [1-octyne] + CCCCCCCCCCCC[N+](C)(C)CCOc1ccccc1.O=S(=O)([N-]S(=O)(=O)C(F)(F)F)C(F)(F)F | 1.69 ± 0.11
11 | C=CCCC [1-pentene] + CCCCCCCCCCCC[N+](C)(C)CCOc1ccccc1.O=S(=O)([N-]S(=O)(=O)C(F)(F)F)C(F)(F)F | 1.83 ± 0.12
12 | C#CCCC [1-pentyne] + CCCCCCCCCCCC[N+](C)(C)CCOc1ccccc1.O=S(=O)([N-]S(=O)(=O)C(F)(F)F)C(F)(F)F | 1.07 ± 0.07
13 | CC(C)CC(C)(C)C [2,2,4-trimethylpentane] + CCCCCCCCCCCC[N+](C)(C)CCOc1ccccc1.O=S(=O)([N-]S(=O)(=O)C(F)(F)F)C(F)(F)F | 3.66 ± 0.25
14 | CCC(C)(C)C [2,2-dimethylbutane] + CCCCCCCCCCCC[N+](C)(C)CCOc1ccccc1.O=S(=O)([N-]S(=O)(=O)C(F)(F)F)C(F)(F)F | 2.82 ± 0.19
15 | CCOC(C)(C)C [2-ethoxy-2-methylpropane] + CCCCCCCCCCCC[N+](C)(C)CCOc1ccccc1.O=S(=O)([N-]S(=O)(=O)C(F)(F)F)C(F)(F)F | 1.8 ± 0.12

same assay, conditions: 328.15 K; 101.33 kPa; Liquid; Chromatography; x1 = 0

Row | Compound | activity coefficient
16 | Cc1ccccc1C [1,2-dimethylbenzene] + CCCCCCCCCCCC[N+](C)(C)CCOc1ccccc1.N#C[N-]C#N | 1.23 ± 0.08
17 | Cc1ccccc1C [1,2-dimethylbenzene] + CCCCCCCCCCCC[N+](C)(C)CCOc1ccccc1.O=S(=O)([N-]S(=O)(=O)C(F)(F)F)C(F)(F)F | 0.83 ± 0.053
18 | Cc1cccc(C)c1 [1,3-dimethylbenzene] + CCCCCCCCCCCC[N+](C)(C)CCOc1ccccc1.N#C[N-]C#N | 1.38 ± 0.09
19 | Cc1cccc(C)c1 [1,3-dimethylbenzene] + CCCCCCCCCCCC[N+](C)(C)CCOc1ccccc1.O=S(=O)([N-]S(=O)(=O)C(F)(F)F)C(F)(F)F | 0.902 ± 0.057
20 | Cc1ccc(C)cc1 [1,4-dimethylbenzene] + CCCCCCCCCCCC[N+](C)(C)CCOc1ccccc1.N#C[N-]C#N | 1.38 ± 0.09
21 | Cc1ccc(C)cc1 [1,4-dimethylbenzene] + CCCCCCCCCCCC[N+](C)(C)CCOc1ccccc1.O=S(=O)([N-]S(=O)(=O)C(F)(F)F)C(F)(F)F | 0.916 ± 0.058
22 | C1COCCO1 [1,4-dioxane] + CCCCCCCCCCCC[N+](C)(C)CCOc1ccccc1.N#C[N-]C#N | 0.76 ± 0.05
23 | C1COCCO1 [1,4-dioxane] + CCCCCCCCCCCC[N+](C)(C)CCOc1ccccc1.O=S(=O)([N-]S(=O)(=O)C(F)(F)F)C(F)(F)F | 0.483 ± 0.037
24 | C=CCCCCCCCC [1-decene] + CCCCCCCCCCCC[N+](C)(C)CCOc1ccccc1.N#C[N-]C#N | 6.45 ± 0.44
25 | C=CCCCCCCCC [1-decene] + CCCCCCCCCCCC[N+](C)(C)CCOc1ccccc1.O=S(=O)([N-]S(=O)(=O)C(F)(F)F)C(F)(F)F | 4.15 ± 0.28
26 | C=CCCCCC [1-heptene] + CCCCCCCCCCCC[N+](C)(C)CCOc1ccccc1.N#C[N-]C#N | 4.19 ± 0.29
27 | C=CCCCCC [1-heptene] + CCCCCCCCCCCC[N+](C)(C)CCOc1ccccc1.O=S(=O)([N-]S(=O)(=O)C(F)(F)F)C(F)(F)F | 2.59 ± 0.18
28 | C#CCCCCC [1-heptyne] + CCCCCCCCCCCC[N+](C)(C)CCOc1ccccc1.N#C[N-]C#N | 1.93 ± 0.13
29 | C#CCCCCC [1-heptyne] + CCCCCCCCCCCC[N+](C)(C)CCOc1ccccc1.O=S(=O)([N-]S(=O)(=O)C(F)(F)F)C(F)(F)F | 1.53 ± 0.1
30 | C#CCCCC [1-hexyne] + CCCCCCCCCCCC[N+](C)(C)CCOc1ccccc1.N#C[N-]C#N | 1.66 ± 0.11
31 | C#CCCCC [1-hexyne] + CCCCCCCCCCCC[N+](C)(C)CCOc1ccccc1.O=S(=O)([N-]S(=O)(=O)C(F)(F)F)C(F)(F)F | 1.33 ± 0.09
32 | CCC[N+](=O)[O-] [1-nitropropane] + CCCCCCCCCCCC[N+](C)(C)CCOc1ccccc1.N#C[N-]C#N | 0.83 ± 0.053
33 | CCC[N+](=O)[O-] [1-nitropropane] + CCCCCCCCCCCC[N+](C)(C)CCOc1ccccc1.O=S(=O)([N-]S(=O)(=O)C(F)(F)F)C(F)(F)F | 0.747 ± 0.049
34 | C#CCCCCCC [1-octyne] + CCCCCCCCCCCC[N+](C)(C)CCOc1ccccc1.N#C[N-]C#N | 2.22 ± 0.15
35 | C#CCCCCCC [1-octyne] + CCCCCCCCCCCC[N+](C)(C)CCOc1ccccc1.O=S(=O)([N-]S(=O)(=O)C(F)(F)F)C(F)(F)F | 1.78 ± 0.12
36 | C=CCCC [1-pentene] + CCCCCCCCCCCC[N+](C)(C)CCOc1ccccc1.N#C[N-]C#N | 3.3 ± 0.22
37 | C=CCCC [1-pentene] + CCCCCCCCCCCC[N+](C)(C)CCOc1ccccc1.O=S(=O)([N-]S(=O)(=O)C(F)(F)F)C(F)(F)F | 1.88 ± 0.13
38 | C#CCCC [1-pentyne] + CCCCCCCCCCCC[N+](C)(C)CCOc1ccccc1.N#C[N-]C#N | 1.47 ± 0.1
39 | C#CCCC [1-pentyne] + CCCCCCCCCCCC[N+](C)(C)CCOc1ccccc1.O=S(=O)([N-]S(=O)(=O)C(F)(F)F)C(F)(F)F | 1.13 ± 0.07
40 | CC(C)CC(C)(C)C [2,2,4-trimethylpentane] + CCCCCCCCCCCC[N+](C)(C)CCOc1ccccc1.N#C[N-]C#N | 7.07 ± 0.48
41 | CC(C)CC(C)(C)C [2,2,4-trimethylpentane] + CCCCCCCCCCCC[N+](C)(C)CCOc1ccccc1.O=S(=O)([N-]S(=O)(=O)C(F)(F)F)C(F)(F)F | 3.72 ± 0.25
42 | CCC(C)(C)C [2,2-dimethylbutane] + CCCCCCCCCCCC[N+](C)(C)CCOc1ccccc1.N#C[N-]C#N | 5.84 ± 0.4
43 | CCC(C)(C)C [2,2-dimethylbutane] + CCCCCCCCCCCC[N+](C)(C)CCOc1ccccc1.O=S(=O)([N-]S(=O)(=O)C(F)(F)F)C(F)(F)F | 2.91 ± 0.2
44 | CCOC(C)(C)C [2-ethoxy-2-methylpropane] + CCCCCCCCCCCC[N+](C)(C)CCOc1ccccc1.N#C[N-]C#N | 3.66 ± 0.25
45 | CCOC(C)(C)C [2-ethoxy-2-methylpropane] + CCCCCCCCCCCC[N+](C)(C)CCOc1ccccc1.O=S(=O)([N-]S(=O)(=O)C(F)(F)F)C(F)(F)F | 1.87 ± 0.13
